Laboratory results: paper PMC11447708, “Comprehensive Exploration of Bromophenol Derivatives: Promising Antibacterial Agents against SA and MRSA” (ACS Omega, 2024)
Values after ≈ are worked out from the molar mass of the structure shown. Read-outs that look alike come from different tables or passages of the source.

Tests used:
P. aeruginosa [1] = test: microbroth dilution assay (MIC, resazurin); type: cell-based, Pseudomonas aeruginosa; conditions: 18 h, 37 °C; for MIC: Pseudomonas aeruginosa
Procedure: (§1) The antibacterial efficacy of the chosen compounds was assessed through the microbroth dilution assay conducted in 96-well culture plates.[21] A stock solution with a concentration of 20 mg/mL was prepared in dimethyl sulfoxide (DMSO). Subsequently, autoclaved nutrient broth (100 μL) was introduced into the culture plate wells, with the initial row of the microtiter plate receiving 100 μL of the test material. 2-fold serial dilutions of the test compounds were then meticulously executed. To serve as an indicator, 20 μL of 2× resazurin solution was added to each well. Finally, 10 μL of the bacterial suspension was incorporated into each well, yielding a final concentration of 5 × 10^6 CFU/mL. The experiment was conducted in duplicate, and the plates were incubated at 37 °C. After 18 h, the plates were scrutinized for any change in color indicative of bacterial growth.

S. aureus ATCC 2793 = test: agar well diffusion, zone of inhibition; type: cell-based, Staphylococcus aureus; conditions: for Diameter of zone inhibition on SA: Supplement S4, antibiotic standards; for inhibition zone diameter S. aureus: concentration (μg): 20 for 1-3, 10 for ampicillin and tobramycin, 30 for tetracycline
Procedure: (§2) The susceptibility test was measured in vitro by employing the agar well diffusion method.[20]S. aureus ATCC 2793 and P. aeruginosa ATCC 27853 strains were used in this experiment. A suspension of the test organism was prepared in nutrient broth by overnight culture for 24 h at 37 °C and 7.0 pH. The agar plate surface was inoculated by spreading a volume of the microbial inoculum over the entire agar surface. Then, a hole with a diameter of 6 to 8 mm was punched aseptically with a sterile tip, and a volume (20 μL) of the tested solution at the desired concentration was introduced into the well. Then, agar plates were incubated under suitable conditions depending upon the test microorganism. After incubation, the plates were examined and the diameters of the zone of complete inhibition were observed.

P. aeruginosa ATCC 27853 [2] = test: agar well diffusion, zone of inhibition; type: cell-based, Pseudomonas aeruginosa; conditions: for Diameter of zone inhibition on PA: Supplement S4, antibiotic standards; for inhibition zone diameter P. aeruginosa: concentration (μg): 20 for 1-3, 10 for ampicillin and tobramycin, 30 for tetracycline
Procedure: as §2

MRSA = test: agar well diffusion, zone of inhibition; type: cell-based, Staphylococcus aureus; conditions: for Diameter of zone inhibition on MRSA: Supplement S4, antibiotic standards; for inhibition zone diameter MRSA: concentration (μg): 20 for 1-3, 10 for ampicillin and tobramycin, 30 for tetracycline
Procedure: Staphylococcus aureus ATCC 2793, Pseudomonas aeruginosa ATCC 27853, and P. aeruginosa PA14 were activated, cultured, and stored in a refrigerator at −25 °C in the Laboratory of Biotechnology, Faculty of Chemical, Da Nang University of Science and Technology, The University of Da Nang. The MRSA antibiotic-resistant strain was isolated, identified,[17] and kindly provided by Dr. Ngo Thai Bich Van, Faculty of Chemical, Da Nang University of Science and Technology, The University of Da Nang.
as §2

S. aureus [3] = test: microbroth dilution assay (MIC, resazurin); type: cell-based, Staphylococcus aureus; conditions: 18 h, 37 °C; for MIC: Staphylococcus aureus
Procedure: as §1

P. aeruginosa ATCC 27853 [4] = test: biofilm formation inhibition, crystal violet assay; type: cell-based, Pseudomonas aeruginosa; conditions: mean ± SD, n = 3
Procedure: Biofilm formation was evaluated utilizing the crystal violet assay.[22] The P. aeruginosa ATCC 27853 strain was used in this experiment. The bacterial attachment was initiated by inoculating the culture medium with approximately 10^7 CFU/mL in polystyrene 96-well plates, followed by incubation at 37 °C for 2 h in aerobic conditions. Subsequent to the attachment phase, the medium was carefully aspirated, and the 96-well plates were rinsed with phosphate-buffered saline (PBS) (pH 7.0) to eliminate unattached cells. The fresh medium, along with tested compounds, was then introduced to assess the inhibitory impact on biofilm formation. Following an 18 h incubation at 37 °C, a crystal violet (CV) assay was conducted. The well plate was washed with PBS to eliminate unattached cells, and a 1% CV solution was added, allowing for a 30 min incubation at room temperature. After this period, the well plate underwent three PBS washes, and absolute ethanol was added, incubating for 15 min. Following the transfer of the stained solution to a new well plate, the absorbance was measured at 595 nm.

[5] = tested on: pyocyanin production in the PA14 strain; test: pyocyanin inhibition assay (chloroform extraction); type: cell-based, Pseudomonas aeruginosa; conditions: half of the MIC, 12 h, mean ± SD, n = 3
Procedure: Following the specified incubation period, the cultures underwent centrifugation at 10,000 rpm for 10 min, leading to the collection of the supernatant. Subsequently, 3 mL of chloroform was added to 5 mL of the supernatant, and the mixture was vortexed for 20 s. After centrifugation at 5000 rpm for 10 min, the resulting blue layer at the bottom was transferred to a new tube. To each tube, 2 mL of 0.2 M HCl was added and vortexed for 20 s. The sample underwent subsequent centrifugation for 2 min at 5000 rpm, and 1 mL of the resulting pink layer was transferred to cuvettes. A blank was established using 0.2 M HCl. Spectrophotometric measurements were carried out at 520 nm.

P. aeruginosa ATCC 27853 [6] = test: swarming motility; type: cell-based, Pseudomonas aeruginosa; conditions: 24 h at 37 °C; for migration distance (mm): swarming, control 100 mm
Procedure: The analysis was performed in Petri dishes with the LB minimal medium supplemented with 0.2% glucose and 0.5% agar, as described by Kearns.[24] Tested compounds were added to the motility agar at the desired concentration. Aliquots (1.0 μL) were taken from P. aeruginosa ATCC 27853 overnight cultures and spotted in the center of each well, and the migration zones were measured after 24 h of incubation at 37 °C. The inhibition rate was calculated as follows: [drawing 1] where Dtreated and Dcontrol are the migration distances in the treated and control samples, respectively.

HEK-293 cells = test: AlamarBlue cell viability assay; type: cell-based; conditions: Homo sapiens, HEK293, 24 h exposure
Procedure: HEK-293 cells were cultured in DMEM containing 25 mM glucose, 10% heat-inactivated fetal bovine serum (FBS), 100 U/mL penicillin, and 100 μg/mL streptomycin. Cells were incubated at 37 °C in a humidified atmosphere containing 95% air and 5% CO2.
[…] Untreated groups were set as the control (100% cell viability). On the 24th, cells were treated with the Invitrogen AlamarBlue cell viability reagent for an additional 2 h. Optical density (OD) values (at wavelengths of 570 and 600 nm) were then recorded. The percentage of cell viability was calculated according to the protocol provided by the manufacturer.

S. aureus [7] = tested on: S. aureus; parameters: method as in Liu et al.[7]; conditions: bromo benzenediol derivatives; ref Liu et al.[7]; cited from earlier work
P. aeruginosa [8] = tested on: P. aeruginosa; parameters: method as in Liu et al.[7]; conditions: bromo benzenediol derivatives; ref Liu et al.[7]; cited from earlier work
[9] = tested on: Staphylcoccus epidermidis; parameters: method as in Liu et al.[7]; conditions: ref Liu et al.[7]; cited from earlier work

Row | Structure (SMILES) | MIC P. aeruginosa (P. aeruginosa [1]) | Diameter of zone inhibition on SA (S. aureus ATCC 2793) | inhibition zone diameter S. aureus (S. aureus ATCC 2793) | Diameter of zone inhibition on PA (P. aeruginosa ATCC 27853 [2]) | inhibition zone diameter P. aeruginosa (P. aeruginosa ATCC 27853 [2]) | Diameter of zone inhibition on MRSA (MRSA) | inhibition zone diameter MRSA (MRSA) | MIC S. aureus (S. aureus [3]) | MIC (S. aureus [3]) | biofilm formation inhibition (%) (P. aeruginosa ATCC 27853 [4]) | MIC (P. aeruginosa [1]) | pyocyanin production inhibition (%) [5] | swarming motility inhibition rate (%) (P. aeruginosa ATCC 27853 [6]) | migration distance (mm) (P. aeruginosa ATCC 27853 [6]) | IC50 (HEK-293 cells) | MIC S. aureus (S. aureus [7]) | MIC P. aeruginosa (P. aeruginosa [8]) | MIC on Staphylcoccus epidermidis [9]
1 | CC1(C)S[C@@H]2[C@H](NC(=O)[C@H](N)c3ccccc3)C(=O)N2[C@H]1C(=O)O [ampicillin] | inactive | 14.5 mm | 16 mm | 0 mm | no observable zone diameter | 15.5 mm | 18 mm | 10 µg/mL (≈ 28.6 µM) | 10 µg/mL (≈ 28.6 µM) |  |  |  |  |  |  |  |  | 
2 | CC(=O)c1c(O)ccc(Br)c1O [compound 2, 3-Bromo-2,6-dihydroxyacetophenone] |  |  | 29 mm |  | 1 mm |  | 30 mm |  | 12 µg/mL (≈ 51.9 µM) | 14% | 780 µg/mL (≈ 3380 µM) | 52% | 86.5% | 13.5 mm | 31.1 µM |  |  | 
3 | CC(=O)c1cc(Br)c(O)c(Br)c1O [compound 3, 3,5-Dibromo-2,4-dihydroxyacetophenone] |  |  | 12 mm |  | 1 mm |  | 20 mm |  | 390 µg/mL (≈ 1260 µM) | 14% | 780 µg/mL (≈ 2520 µM) | 38% | 86.5% | 13.5 mm | > 32 µM |  |  | 
4 | Oc1cc(Cc2cc(O)c(O)c(Br)c2Br)c(Br)c(Br)c1O [compound 7, 4,4′-methylenebis(5,6-dibromo-1,2-benzenediol)] |  |  |  |  |  |  |  |  |  |  |  |  |  |  |  | 140 µg/mL (≈ 256 µM) | 140 µg/mL (≈ 256 µM) | 
5 | Oc1cc(COCc2cc(O)c(O)c(Br)c2Br)c(Br)c(Br)c1O [compound 8, bis(2,3-dibromo-4,5-dihydroxybenzyl)ether] |  |  |  |  |  |  |  |  |  |  |  |  |  |  |  | 70 µg/mL (≈ 121 µM) | 70 µg/mL (≈ 121 µM) | 35 µg/mL (≈ 60.6 µM)
6 | CN(C)[C@@H]1C(O)=C(C(N)=O)C(=O)[C@@]2(O)C(O)=C3C(=O)c4c(O)cccc4[C@@](C)(O)[C@H]3C[C@@H]12 [tetracycline] | 70 µg/mL (≈ 158 µM) | 9.75 mm | 14 mm | 10.5 mm | 10 mm | 10.25 mm | 12 mm | 30 µg/mL (≈ 67.5 µM) | 30 µg/mL (≈ 67.5 µM) |  | 70 µg/mL (≈ 158 µM) |  |  |  |  |  |  | 
7 | NC[C@H]1O[C@H](O[C@H]2[C@H](O)[C@@H](O[C@H]3O[C@H](CO)[C@@H](O)[C@H](N)[C@H]3O)[C@H](N)C[C@@H]2N)[C@H](N)C[C@@H]1O [tobramycin] | 15 µg/mL (≈ 32.1 µM) |  | 15 mm | 5.5 mm | 15 mm | 5.5 mm | 12 mm | 25 µg/mL (≈ 53.5 µM) | 25 µg/mL (≈ 53.5 µM) |  | 15 µg/mL (≈ 32.1 µM) |  |  |  |  |  |  | 
